Source: ChEMBL document CHEMBL1201862, “PubChem BioAssay data set” (2004)
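These data come from cells grown in 96-well plates and exposed to compound for 48 hours at five concentrations. At the GI50, growth is halved.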 Activity calls are given as the source filed them. Cut-off read from the data, not from the text of the source: active = GI50 up to about 1.1 µM and inactive = higher.

What was measured:
Assay in all cases: growth of human tumour cells (NCI), 48 h
HT-29 = tested on: HT-29
OVCAR-3 = tested on: OVCAR-3
SF-268 = tested on: SF-268
HOP-62 = tested on: HOP-62
OVCAR-5 = tested on: OVCAR-5
BT-549 = tested on: BT-549
A498 = tested on: A498
NCI-H23 = tested on: NCI-H23
EKVX = tested on: EKVX
MCF7 = tested on: MCF7
MDA-N = tested on: MDA-N
U-251 = tested on: U-251
T47D = tested on: T47D
ACHN = tested on: ACHN
RXF 393 = tested on: RXF 393
Hs-578T = tested on: Hs-578T
SR = tested on: SR
HCT-116 = tested on: HCT-116
SNB-75 = tested on: SNB-75
LXFL 529 = tested on: LXFL 529

Structure (SMILES)	GI50 (HT-29)	GI50 (OVCAR-3)	GI50 (SF-268)	GI50 (HOP-62)	GI50 (OVCAR-5)	GI50 (BT-549)	GI50 (A498)	GI50 (NCI-H23)	GI50 (EKVX)	GI50 (MCF7)	GI50 (MDA-N)	GI50 (U-251)	GI50 (T47D)	GI50 (ACHN)	GI50 (RXF 393)	GI50 (Hs-578T)	GI50 (SR)	GI50 (HCT-116)	GI50 (SNB-75)	GI50 (LXFL 529)
COCOc1cc(OCOC)cc(C(=O)Oc2ccccc2)c1	> 100 µM (inactive)	> 100 µM (inactive)	> 100 µM (inactive)	> 100 µM (inactive)	> 100 µM (inactive)	> 100 µM (inactive)	> 100 µM (inactive)	> 100 µM (inactive)	91.4 µM (inactive)	> 100 µM (inactive)	> 100 µM (inactive)	> 100 µM (inactive)	57.4 µM (inactive)	> 100 µM (inactive)	> 100 µM (inactive)	43.1 µM (inactive)	85.9 µM (inactive)	> 100 µM (inactive)	78.3 µM (inactive)	–
Cn1nc(-c2ccccc2)c(C(=O)/C=C/c2ccc(Cl)cc2)c(N2CCCC2)c1=O	2.21 µM (inactive)	–	4.61 µM (inactive)	2.23 µM (inactive)	–	–	–	2.89 µM (inactive)	11.7 µM (inactive)	–	–	4.27 µM (inactive)	–	1.72 µM (inactive)	2.63 µM (inactive)	–	–	2.56 µM (inactive)	–	3.47 µM (inactive)
CC(=O)Nc1nc(C)c(S(=O)(=O)NC(=O)NC2NC(=O)NC2=O)s1 (configuration not stated)	> 100 µM (inactive)	> 100 µM (inactive)	> 100 µM (inactive)	> 100 µM (inactive)	> 100 µM (inactive)	> 100 µM (inactive)	> 100 µM (inactive)	> 100 µM (inactive)	> 100 µM (inactive)	> 100 µM (inactive)	> 100 µM (inactive)	> 100 µM (inactive)	> 100 µM (inactive)	> 100 µM (inactive)	> 100 µM (inactive)	> 100 µM (inactive)	> 100 µM (inactive)	> 100 µM (inactive)	> 100 µM (inactive)	–
O=c1cccccc1O.O=c1cccccc1O.O=c1cccccc1O.[SiH4]	33.4 µM (inactive)	24.2 µM (inactive)	42.9 µM (inactive)	28.4 µM (inactive)	28.6 µM (inactive)	–	34.4 µM (inactive)	16.5 µM (inactive)	< 0.01 µM (active)	–	–	21.3 µM (inactive)	–	10 µM (inactive)	–	–	–	13.6 µM (inactive)	29.1 µM (inactive)	18.8 µM (inactive)
Cn1c(=O)c(C(=O)NC(=O)NCCCCCOC(=O)CCCCCCCCCCC(=O)OCCCCCNC(=O)NC(=O)c2cn(Cc3ccccc3)c(=O)n(C)c2=O)cn(Cc2ccccc2)c1=O	> 100 µM (inactive)	> 100 µM (inactive)	> 100 µM (inactive)	> 100 µM (inactive)	> 100 µM (inactive)	–	> 100 µM (inactive)	> 100 µM (inactive)	> 100 µM (inactive)	–	–	> 100 µM (inactive)	–	> 100 µM (inactive)	> 100 µM (inactive)	–	–	> 100 µM (inactive)	> 100 µM (inactive)	> 100 µM (inactive)
C[N+]1=C2[B-](C(C)(C)C)=[N+](C(C)(C)C)[B-]2(C(C)(C)C)[N+](C)=C2[B-](C(C)(C)C)=[N+](C(C)(C)C)[B-]21C(C)(C)C (configuration not stated)	> 100 µM (inactive)	> 100 µM (inactive)	> 100 µM (inactive)	> 100 µM (inactive)	> 100 µM (inactive)	> 100 µM (inactive)	> 100 µM (inactive)	> 100 µM (inactive)	> 100 µM (inactive)	59.4 µM (inactive)	> 100 µM (inactive)	> 100 µM (inactive)	> 100 µM (inactive)	> 100 µM (inactive)	> 100 µM (inactive)	> 100 µM (inactive)	> 100 µM (inactive)	> 100 µM (inactive)	> 100 µM (inactive)	–
Cc1cccc(NC(=S)N/N=C(/c2ccccc2)c2ccccn2)c1	0.0285 µM (active)	< 0.0182 µM (active)	0.0863 µM (active)	1.29 µM (inactive)	0.0266 µM (active)	2.5 µM (inactive)	1.98 µM (inactive)	< 0.0282 µM (active)	0.0885 µM (active)	< 0.0172 µM (active)	0.46 µM (active)	0.0299 µM (active)	0.0579 µM (active)	0.044 µM (active)	0.667 µM (active)	9.02 µM (inactive)	< 0.0144 µM (active)	< 0.0131 µM (active)	0.991 µM (active)	–
COc1ccc(/N=C(Nc2ccc(OC)cc2)/C(=N/c2ccc(OC)cc2)Nc2ccc(OC)cc2)cc1	> 100 µM (inactive)	> 100 µM (inactive)	> 100 µM (inactive)	> 100 µM (inactive)	> 100 µM (inactive)	> 100 µM (inactive)	> 100 µM (inactive)	> 100 µM (inactive)	> 100 µM (inactive)	> 100 µM (inactive)	> 100 µM (inactive)	> 100 µM (inactive)	> 100 µM (inactive)	> 100 µM (inactive)	> 100 µM (inactive)	37.1 µM (inactive)	48.2 µM (inactive)	> 100 µM (inactive)	1.95 µM (inactive)	–
